Among the test systems are OVCAR-3 ovarian; M14 melanoma; SW-620 colon; NCI-H23 lung; RPMI-8226 leukemia; HL-60(TB) leukemia; SK-MEL-28 melanoma; NCI-H522 lung; NCI/ADR-RES ovarian; K-562 leukemia.
Experiment in all cases: NCI anticancer screen, dose series, 48 h

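Step 1: Grow cells in 96-well plates. Step 2: Expose to compound for 48 hours at 5 concentrations. Step 3: Interpolate endpoints linearly; if unreached, use highest concentration. Definition used: TGI = concentration required for complete inhibition of growth.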 A value given as a limit tells only on which side of the number the result lay.

Regarding `COc1cccc(/C=N/NC(=O)CSCC(=O)N/N=C/c2cccc(OC)c2OC)c1OC`, the TGI in the experiment with OVCAR-3 ovarian, in the experiment on M14 melanoma, with SW-620 colon, in the experiment on NCI-H23 lung, with RPMI-8226 leukemia and in the experiment with HL-60(TB) leukemia was above 100 µM throughout. The TGI in the experiment on SK-MEL-28 melanoma, in the experiment on NCI-H522 lung, in the experiment with NCI/ADR-RES ovarian and in the experiment with K-562 leukemia was above 100 µM each time.

For `CSC1(C)C(=O)Nc2c(OCc3ccccc3)cc([N+](=O)[O-])cc21` (stereo unspecified), the TGI with OVCAR-3 ovarian, in the experiment with M14 melanoma, with SW-620 colon, with NCI-H23 lung, in the experiment on RPMI-8226 leukemia and in the experiment on HL-60(TB) leukemia was above 100 µM throughout. Moreover, the TGI in the experiment on SK-MEL-28 melanoma, in the experiment on NCI-H522 lung, in the experiment on NCI/ADR-RES ovarian and in the experiment on K-562 leukemia was above 100 µM each time.

As to `Cc1ccc(C(=O)Nc2ccc(CP(=O)(O)O)cc2)cc1NC(=O)c1cccc(N)c1`, the TGI in the experiment on OVCAR-3 ovarian, with M14 melanoma, in the experiment on SW-620 colon, in the experiment on NCI-H23 lung, in the experiment on RPMI-8226 leukemia and in the experiment on HL-60(TB) leukemia was above 100 µM each time. The TGI in the experiment with SK-MEL-28 melanoma, in the experiment on NCI-H522 lung, in the experiment on NCI/ADR-RES ovarian and with K-562 leukemia was above 100 µM each time.

With `O=C1c2ccccc2C(=O)N1CCSCC(CO)SCCN1C(=O)c2ccccc2C1=O` (stereo unspecified), the TGI was above 100 µM with M14 melanoma; above 100 µM in the experiment with SW-620 colon; above 100 µM with NCI-H23 lung; above 100 µM with RPMI-8226 leukemia; 50.5 µM with HL-60(TB) leukemia; above 100 µM with SK-MEL-28 melanoma. Moreover, the TGI with NCI-H522 lung, in the experiment on NCI/ADR-RES ovarian and with K-562 leukemia was above 100 µM each time.

On to `NS(=O)(=O)c1nnc(NC(=O)C23CC4CC(CC(C4)C2)C3)s1`, for which the TGI in the experiment on OVCAR-3 ovarian, in the experiment with M14 melanoma, in the experiment on SW-620 colon, in the experiment with NCI-H23 lung, in the experiment with RPMI-8226 leukemia and with SK-MEL-28 melanoma was above 100 µM throughout. Besides, the TGI in the experiment with NCI-H522 lung, in the experiment on NCI/ADR-RES ovarian and in the experiment on K-562 leukemia was above 100 µM throughout.

Take `Cc1c(C)c(C)c(Cn2[nH]c(=O)n(C)c2=O)c(C)c1C`: the TGI in the experiment with M14 melanoma, with SW-620 colon, in the experiment on NCI-H23 lung, in the experiment with RPMI-8226 leukemia, in the experiment on HL-60(TB) leukemia and in the experiment on SK-MEL-28 melanoma was above 100 µM throughout. In addition, the TGI in the experiment with NCI-H522 lung, in the experiment with NCI/ADR-RES ovarian and in the experiment on K-562 leukemia was above 100 µM throughout.

For `COc1ccc(OC)c(NCC(=O)Nn2cnc3ccc(S(=O)(=O)Nc4cc(OC)ccc4OC)cc3c2=O)c1`, the TGI in the experiment with OVCAR-3 ovarian was above 100 µM; in the experiment with M14 melanoma it was above 100 µM; with SW-620 colon it was above 100 µM; with NCI-H23 lung, above 100 µM; with HL-60(TB) leukemia, 43.1 µM; in the experiment on SK-MEL-28 melanoma, above 100 µM. Further, the TGI with NCI-H522 lung, in the experiment with NCI/ADR-RES ovarian and with K-562 leukemia was above 100 µM throughout.

With `Cc1cc(Cl)nc2nc(Cl)c(N)cc12`, the TGI in the experiment with OVCAR-3 ovarian came out at 3.27 µM; with M14 melanoma it was 25.6 µM; in the experiment on SW-620 colon, 4.08 µM; in the experiment on NCI-H23 lung it was 23.4 µM; with RPMI-8226 leukemia, 5.74 µM; in the experiment on SK-MEL-28 melanoma, 6.21 µM. Besides, the TGI is 12 µM in the experiment on NCI-H522 lung, 58.2 µM in the experiment with NCI/ADR-RES ovarian and above 100 µM with K-562 leukemia.

On to `Cc1cc(S(=O)(=O)N2CCNNC2=O)c(S)cc1Cl`, for which the TGI in the experiment on OVCAR-3 ovarian was above 100 µM; with M14 melanoma, above 100 µM; in the experiment with SW-620 colon, above 100 µM; with RPMI-8226 leukemia, above 100 µM; with HL-60(TB) leukemia, above 100 µM; in the experiment with SK-MEL-28 melanoma it was 59.6 µM. The TGI is 66.6 µM in the experiment on NCI-H522 lung, above 100 µM in the experiment with NCI/ADR-RES ovarian and above 100 µM in the experiment on K-562 leukemia.

For `COCCN(CCNC(=O)c1cccc2c(N)c3cccc(C)c3nc12)CCOC`, the TGI was 15.2 µM with OVCAR-3 ovarian; 2.7 µM in the experiment on M14 melanoma; above 50.2 µM in the experiment with SW-620 colon; 3.53 µM in the experiment on NCI-H23 lung; 5.91 µM in the experiment on RPMI-8226 leukemia; above 41.1 µM in the experiment on SK-MEL-28 melanoma. For the same compound, the TGI with NCI-H522 lung came out at 0.894 µM; in the experiment on NCI/ADR-RES ovarian it was 33.7 µM.

Take `COC(=O)C1CCN(C(=O)OC(C)(C)C)CC1`: the TGI in the experiment with OVCAR-3 ovarian, with M14 melanoma, in the experiment on SW-620 colon, in the experiment on NCI-H23 lung, in the experiment on RPMI-8226 leukemia and in the experiment with HL-60(TB) leukemia was above 100 µM throughout. Besides, the TGI in the experiment with SK-MEL-28 melanoma, in the experiment on NCI-H522 lung and with NCI/ADR-RES ovarian was above 100 µM throughout.

With `OC1c2ccccc2CCC1CN1CCN(CCOC(c2ccc(F)cc2)c2ccc(F)cc2)CC1` (stereo unspecified), the TGI was 42.6 µM with OVCAR-3 ovarian; 27.6 µM with M14 melanoma; 38.2 µM with SW-620 colon; 32.2 µM in the experiment on NCI-H23 lung; 64.4 µM in the experiment on RPMI-8226 leukemia; 26.6 µM with SK-MEL-28 melanoma. Besides, the TGI came out at 33.6 µM in the experiment with NCI-H522 lung, 35.3 µM in the experiment on NCI/ADR-RES ovarian and 27.5 µM in the experiment on K-562 leukemia.

With `CC(=O)Nc1ccc2nc(-c3ccccn3)c(-c3ccccn3)nc2c1`, the TGI with OVCAR-3 ovarian, in the experiment on M14 melanoma, in the experiment on SW-620 colon, with RPMI-8226 leukemia, with HL-60(TB) leukemia and with SK-MEL-28 melanoma was above 100 µM each time. Moreover, the TGI in the experiment on NCI-H522 lung, in the experiment on NCI/ADR-RES ovarian and with K-562 leukemia was above 100 µM in each case.

As to `S=C(NCCc1ccccn1)N/N=C/c1ccccn1`, the TGI with OVCAR-3 ovarian was above 100 µM; with M14 melanoma, 3.39 µM; in the experiment with SW-620 colon it was above 100 µM; with RPMI-8226 leukemia it was 0.186 µM; in the experiment on HL-60(TB) leukemia, below 0.01 µM; in the experiment with SK-MEL-28 melanoma it was above 100 µM. In addition, the figures for the TGI with NCI-H522 lung and in the experiment with NCI/ADR-RES ovarian were 1.57 µM and above 100 µM, respectively.

For the compound `CC1(C)[C@@H]2CC[C@]1(C)[C@H](OC(=O)/C=C/c1ccccc1)C2`, the TGI was determined as 19.6 µM in the experiment with OVCAR-3 ovarian; 70.8 µM in the experiment with M14 melanoma; 30.6 µM with SW-620 colon; 50.8 µM in the experiment with NCI-H23 lung; 40.5 µM in the experiment with HL-60(TB) leukemia; 50.4 µM in the experiment with SK-MEL-28 melanoma. The TGI with NCI-H522 lung came to 28.6 µM; in the experiment on NCI/ADR-RES ovarian it was 37.1 µM; in the experiment on K-562 leukemia, 38.1 µM.

These data come from PubChem BioAssay (NCI).
